How the values were obtained:
Assay in all cases: relative viability (nuclei count vs DMSO), 5 days (fraction); higher = more cells survive
[1] = system: NCI-H520
Procedure, shortened: (§1)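 Relative viability divides the nuclei count in treated wells by that in vehicle wells. Lung cancer cell lines were seeded in 1536-well plates, dosed by pin tool the next day, and fixed and stained after 5 days in one step with final 0.05% Triton X-100, 1% formaldehyde and 1 ug/ml Hoechst. Dosing was a single drug or a fixed anchor-drug dose plus five library-drug doses (not always all listed) in √10 steps, and values are medians of duplicate plates imaged at 4×.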

[2] = system: NCI-H2126
Procedure, shortened: as §1

[3] = system: NCI-H647
Procedure, shortened: as §1

[4] = system: LCLC-97TM1
Procedure, shortened: as §1

[5] = system: RERF-LC-KJ
Procedure, shortened: as §1

[6] = system: H3255
Procedure, shortened: as §1

[7] = system: LC-2-ad
Procedure, shortened: as §1

[8] = system: NCI-H2087
Procedure, shortened: as §1

[9] = system: NCI-H2347
Procedure, shortened: as §1

[10] = system: EPLC-272H
Procedure, shortened: as §1

[11] = system: PC-14
Procedure, shortened: as §1

[12] = system: 201T
Procedure, shortened: as §1

[13] = system: NCI-H650
Procedure, shortened: as §1

[14] = system: NCI-H1915
Procedure, shortened: as §1

[15] = system: COR-L 105
Procedure, shortened: as §1

[16] = system: HCC-827
Procedure, shortened: as §1

[17] = system: HCC-78
Procedure, shortened: as §1

[18] = system: NCI-H2405
Procedure, shortened: as §1

[19] = system: ChaGo-K-1
Procedure, shortened: as §1

[20] = system: NCI-H661
Procedure, shortened: as §1

[21] = system: NCI-H1666
Procedure, shortened: as §1

[22] = system: NCI-H23
Procedure, shortened: as §1

COc1cc2nccc(Oc3ccc(NC(=O)Nc4cc(C)on4)c(Cl)c3)c2cc1OC [Tivozanib] + C[C@@H](Oc1cc(-c2cnn(C3CCNCC3)c2)cnc1N)c1c(Cl)ccc(F)c1Cl [Crizotinib] (partner 1 µM)
relative viability ([1]; first compound 0.005 µM): 0.822
relative viability ([1]; first compound 0.01581 µM): 0.827
relative viability ([1]; first compound 0.05 µM): 0.895
relative viability ([1]; first compound 0.1581 µM): 0.713
relative viability ([1]; first compound 0.5 µM): 0.603
relative viability ([2]; first compound 0.005 µM): 0.965
relative viability ([2]; first compound 0.01581 µM): 0.946
relative viability ([2]; first compound 0.05 µM): 1.03
relative viability ([2]; first compound 0.1581 µM): 0.912
relative viability ([2]; first compound 0.5 µM): 1.03
relative viability ([3]; first compound 0.005 µM): 0.925
relative viability ([3]; first compound 0.01581 µM): 1.1
relative viability ([3]; first compound 0.05 µM): 1.13
relative viability ([3]; first compound 0.1581 µM): 1.05
relative viability ([3]; first compound 0.5 µM): 0.991
relative viability ([4]; first compound 0.005 µM): 0.224
relative viability ([4]; first compound 0.01581 µM): 0.302
relative viability ([4]; first compound 0.1581 µM): 0.365
relative viability ([4]; first compound 0.5 µM): 0.46
relative viability ([5]; first compound 0.005 µM): 0.771
relative viability ([5]; first compound 0.01581 µM): 0.81
relative viability ([5]; first compound 0.05 µM): 0.863
relative viability ([5]; first compound 0.1581 µM): 0.85
relative viability ([5]; first compound 0.5 µM): 0.747
relative viability ([6]; first compound 0.005 µM): 0.799
relative viability ([6]; first compound 0.01581 µM): 0.906
relative viability ([6]; first compound 0.05 µM): 0.911
relative viability ([6]; first compound 0.1581 µM): 0.777
relative viability ([6]; first compound 0.5 µM): 0.8
relative viability ([7]; first compound 0.005 µM): 0.413
relative viability ([7]; first compound 0.01581 µM): 0.426
relative viability ([7]; first compound 0.05 µM): 0.522
relative viability ([7]; first compound 0.1581 µM): 0.468
relative viability ([7]; first compound 0.5 µM): 0.347
relative viability ([8]; first compound 0.005 µM): 0.797
relative viability ([8]; first compound 0.01581 µM): 0.862
relative viability ([8]; first compound 0.05 µM): 0.882
relative viability ([8]; first compound 0.1581 µM): 0.917
relative viability ([8]; first compound 0.5 µM): 0.668
relative viability ([9]; first compound 0.005 µM): 0.578
relative viability ([9]; first compound 0.01581 µM): 0.679
relative viability ([9]; first compound 0.05 µM): 0.673
relative viability ([9]; first compound 0.1581 µM): 0.685
relative viability ([9]; first compound 0.5 µM): 0.605
relative viability ([10]; first compound 0.005 µM): 0.945
relative viability ([10]; first compound 0.01581 µM): 0.829
relative viability ([10]; first compound 0.05 µM): 0.937
relative viability ([10]; first compound 0.1581 µM): 0.718
relative viability ([10]; first compound 0.5 µM): 0.715
relative viability ([11]; first compound 0.005 µM): 0.796
relative viability ([11]; first compound 0.01581 µM): 0.879
relative viability ([11]; first compound 0.05 µM): 0.961
relative viability ([11]; first compound 0.1581 µM): 0.879
relative viability ([11]; first compound 0.5 µM): 0.885
relative viability ([12]; first compound 0.005 µM): 0.981
relative viability ([12]; first compound 0.01581 µM): 1.04
relative viability ([12]; first compound 0.05 µM): 1.06
relative viability ([12]; first compound 0.1581 µM): 1
relative viability ([12]; first compound 0.5 µM): 1.04
relative viability ([13]; first compound 0.005 µM): 0.596
relative viability ([13]; first compound 0.01581 µM): 0.906
relative viability ([13]; first compound 0.05 µM): 0.891
relative viability ([13]; first compound 0.1581 µM): 0.696
relative viability ([13]; first compound 0.5 µM): 0.455
relative viability ([14]; first compound 0.005 µM): 0.863
relative viability ([14]; first compound 0.01581 µM): 0.905
relative viability ([14]; first compound 0.05 µM): 0.972
relative viability ([14]; first compound 0.1581 µM): 0.924
relative viability ([14]; first compound 0.5 µM): 0.857
relative viability ([15]; first compound 0.01581 µM): 0.794
relative viability ([15]; first compound 0.05 µM): 0.797
relative viability ([15]; first compound 0.1581 µM): 0.775
relative viability ([15]; first compound 0.5 µM): 0.701
relative viability ([16]; first compound 0.005 µM): 0.956
relative viability ([16]; first compound 0.01581 µM): 0.928
relative viability ([16]; first compound 0.05 µM): 0.938
relative viability ([16]; first compound 0.1581 µM): 0.988
relative viability ([16]; first compound 0.5 µM): 0.866
relative viability ([17]; first compound 0.005 µM): 0.352
relative viability ([17]; first compound 0.01581 µM): 0.365
relative viability ([17]; first compound 0.05 µM): 0.313
relative viability ([17]; first compound 0.1581 µM): 0.364
relative viability ([17]; first compound 0.5 µM): 0.351
relative viability ([18]; first compound 0.005 µM): 0.859
relative viability ([18]; first compound 0.01581 µM): 0.846
relative viability ([18]; first compound 0.05 µM): 0.933
relative viability ([18]; first compound 0.1581 µM): 0.903
relative viability ([18]; first compound 0.5 µM): 0.803
relative viability ([19]; first compound 0.005 µM): 1.05
relative viability ([19]; first compound 0.01581 µM): 1.17
relative viability ([19]; first compound 0.05 µM): 1.19
relative viability ([19]; first compound 0.1581 µM): 1.17
relative viability ([19]; first compound 0.5 µM): 0.849
relative viability ([20]; first compound 0.005 µM): 0.961
relative viability ([20]; first compound 0.01581 µM): 0.951
relative viability ([20]; first compound 0.05 µM): 1.03
relative viability ([20]; first compound 0.5 µM): 0.947
relative viability ([21]; first compound 0.005 µM): 0.963
relative viability ([21]; first compound 0.01581 µM): 0.905
relative viability ([21]; first compound 0.05 µM): 0.901
relative viability ([21]; first compound 0.1581 µM): 1.21
relative viability ([21]; first compound 0.5 µM): 0.853
relative viability ([22]; first compound 0.005 µM): 0.544
relative viability ([22]; first compound 0.01581 µM): 0.541
relative viability ([22]; first compound 0.05 µM): 0.474
relative viability ([22]; first compound 0.1581 µM): 0.461
relative viability ([22]; first compound 0.5 µM): 0.459

Reference: the supplement of paper PMC10307832
